One assay concerns rats. Particulars: cited from earlier work.
The subject of assay [1] is Mice. The assay is described as follows: Appetite suppression in mice: Complan formula milk consumption after subcutaneous injection (Example 4). The class given is in vivo. As to conditions: 30 min after injection, p<0.001.
The subject of assay [2] is Mice. The assay is described as follows: Appetite suppression in mice: 20% sucrose consumption, tested immediately after ip injection (Example 2). It counts as in vivo. As to conditions: 85 micrograms (equivalent to 3.4 mg/kg) in sterile saline, 10 minute test immediately after injection, versus vehicle control, p-value 0.002. How it is done:
Mice were deprived of their normal food for two days and given free access to a 20% sucrose solution on the first day of food deprivation. After the two day food deprivation period, the mice were injected intraperitoneally with 0.5 ml of a solution containing the test substance. Immediately after injection, individual mice were placed in one of eight 15 cm square test boxes with a stainless steel grid floor and a glass drinking tube which projected into the box. […] Consumption of the sucrose solution was measured over a 10 minute period by electronically recording the total amount of contact with the sucrose solution during the test session. The degree of appetite suppression produced by a given test substance was determined by statistical comparison of the mean duration of sucrose consumption by control (vehicle treated) mice with that of mice treated with a test substance. The degree of appetite suppression in a treated group of mice was expressed as percent difference between the test and control group's response duration means. […]

In a further assay the test system is Healthy human volunteers. The assay is described as follows: Double-blind crossover trial of iv infusion: food intake, satiety, hunger, fullness and appetite in normal human subjects. It counts as in vivo. As to conditions: iv infusion 50 pmol/(kg·h). From the text:
Healthy human volunteers (20 subjects) were in a double-blind crossover trial given an iv infusion of 50 pmol/(kg·h) of GLP-1(7-36)amide or saline on separate, but otherwise identical experimental days. The infusion was started at 9.00 and lasted until 15.00. At 9.45 the subjects received a fixed amount of breakfast and at 14.15 they had lunch of an identical composition but ad libitum. The subjects rated their feeling of satiety, hunger, fullness and appetite on a visual analogue scale every half hour.

[3] abbreviates: 9.00 to 15.00, 20 subjects, rated every half hour, p=0.007.

Like-named read-outs stand apart in the source and are kept apart here. No end group written: not given here.

As to “GLP-1(1-36)amide (HDEFERHAEGTFTSDVSSYLEGQAAKEFIAWLVKGR-NH2; UniProt P01275 92-127, looked up, fragment) [GLP-1 fragment 1-36, C-terminal amide]”, the “Effect on food intake” value with rats (Tang-Christensen et al. 1996, route not stated) is on record as “no effect”.
Take GLP-1(7-36)amide: the “Suppression of feeding (Complan consumption)” value with Mice [1] (1 mg/kg) is on record as 45%. Besides, the “Maximum effect, suppression of feeding (Complan consumption)” value in the assay with Mice [1] (20 mg/kg (highest dose tested)) is 60%. Moreover, in the assay with Mice [2], the “Suppression of sucrose consumption” value amounted to 60%.
For “GLP-1: proglucagon fragment 72-108 per b6; as named in the cited rat studies (b7); in b63 it is shorthand for GLP-1(7-36)amide”, the “Satiety (visual analogue scale) versus saline” value in the assay with Healthy human volunteers (9.00 to 15.00, 20 subjects, rated every half hour, p=0.006) is “GLP-1>Saline”. Further, the “Appetite (visual analogue scale) versus saline” value in the assay on Healthy human volunteers (setting [3]) is “GLP-1<Saline”. Also, the “Hunger (visual analogue scale) versus saline” value in the assay with Healthy human volunteers (setting [3]) is listed as “GLP-1<Saline”. Moreover, the “Fullness (visual analogue scale) versus saline” value with Healthy human volunteers (9.00 to 15.00, 20 subjects, rated every half hour, p=0.010) is recorded as “GLP-1>Saline”. The Energy intake in the assay with Healthy human volunteers (ad libitum lunch, saline 4.3 MJ, p-value 0.009) worked out at 3.9 mJ. The “Effect on food intake” value was “profound effect” in the assay on rats (administered intracerebroventricularly, Tang-Christensen et al. 1996); “profound effect” in the assay with rats (administered intracerebroventricularly, Turton et al. 1996); “inactive” with rats (peripheral administration, Turton et al. 1996); “no significant effect” in the assay with rats (peripherally administered, Tang-Christensen et al. 1996).

Source of the values: patent US20110028391A1, “Use of GLP-1 Peptides” (Novo Nordisk A/S, priority 1996, published 2011).
